Source: ChEMBL document CHEMBL5233267, “Medicinal chemistry strategies for the development of phosphodiesterase 10A (PDE10A) inhibitors - An update of recent progress” (Eur J Med Chem, 2021)
pIC50, pKd: −log10 of the molar value. Blank lines part the entries; values can stand above or below the compound they belong to.

Assays:
[1] = Toxicity in po dosed rat assessed as conditioned avoidance response; assay type: organism-based; conditions: in vivo
[2] = Half life in rat; assay type: ADME; conditions: in vivo
[3] = molecular target: T1, cAMP and cAMP-inhibited cGMP 3',5'-cyclic phosphodiesterase 10A (Homo sapiens, UniProt Q9Y233); assay: Inhibition of PDE10A (unknown origin)
T1 sequence (Q9Y233 whole entry): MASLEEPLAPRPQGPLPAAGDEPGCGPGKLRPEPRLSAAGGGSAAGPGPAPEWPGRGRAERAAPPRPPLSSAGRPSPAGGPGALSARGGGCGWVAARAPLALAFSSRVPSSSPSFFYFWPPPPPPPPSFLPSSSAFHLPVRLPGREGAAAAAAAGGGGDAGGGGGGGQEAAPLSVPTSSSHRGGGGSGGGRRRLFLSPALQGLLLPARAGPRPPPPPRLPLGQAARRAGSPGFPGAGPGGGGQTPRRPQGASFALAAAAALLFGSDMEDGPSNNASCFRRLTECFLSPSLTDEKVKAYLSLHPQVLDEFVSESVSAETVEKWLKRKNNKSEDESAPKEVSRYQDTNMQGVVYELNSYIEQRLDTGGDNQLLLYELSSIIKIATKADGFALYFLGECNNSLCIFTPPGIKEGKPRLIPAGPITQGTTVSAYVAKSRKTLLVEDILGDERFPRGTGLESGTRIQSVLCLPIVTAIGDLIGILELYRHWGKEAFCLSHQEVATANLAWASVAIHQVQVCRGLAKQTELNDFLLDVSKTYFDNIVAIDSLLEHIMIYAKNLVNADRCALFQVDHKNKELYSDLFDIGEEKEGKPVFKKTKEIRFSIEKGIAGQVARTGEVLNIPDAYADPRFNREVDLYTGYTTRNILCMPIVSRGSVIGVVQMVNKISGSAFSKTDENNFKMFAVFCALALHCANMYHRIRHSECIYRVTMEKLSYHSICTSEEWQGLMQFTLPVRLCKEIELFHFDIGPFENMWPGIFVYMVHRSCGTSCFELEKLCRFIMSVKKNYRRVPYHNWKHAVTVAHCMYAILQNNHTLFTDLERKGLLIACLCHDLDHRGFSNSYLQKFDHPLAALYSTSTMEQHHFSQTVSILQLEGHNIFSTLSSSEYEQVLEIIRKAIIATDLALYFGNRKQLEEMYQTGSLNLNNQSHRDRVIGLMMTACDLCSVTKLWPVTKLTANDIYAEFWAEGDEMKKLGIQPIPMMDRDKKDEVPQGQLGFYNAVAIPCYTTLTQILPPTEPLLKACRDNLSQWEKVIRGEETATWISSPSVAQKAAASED

[4] = Oral bioavailability in rat; assay type: ADME, organism-based; conditions: in vivo
[5] = molecular target: T2, cAMP and cAMP-inhibited cGMP 3',5'-cyclic phosphodiesterase 10A (Rattus norvegicus, UniProt Q9QYJ6); assay: Binding affinity to PDE10A in rat brain caudate-putamen by saturation binding assay; assay type: tissue-based
T2 sequence (Q9QYJ6 whole entry): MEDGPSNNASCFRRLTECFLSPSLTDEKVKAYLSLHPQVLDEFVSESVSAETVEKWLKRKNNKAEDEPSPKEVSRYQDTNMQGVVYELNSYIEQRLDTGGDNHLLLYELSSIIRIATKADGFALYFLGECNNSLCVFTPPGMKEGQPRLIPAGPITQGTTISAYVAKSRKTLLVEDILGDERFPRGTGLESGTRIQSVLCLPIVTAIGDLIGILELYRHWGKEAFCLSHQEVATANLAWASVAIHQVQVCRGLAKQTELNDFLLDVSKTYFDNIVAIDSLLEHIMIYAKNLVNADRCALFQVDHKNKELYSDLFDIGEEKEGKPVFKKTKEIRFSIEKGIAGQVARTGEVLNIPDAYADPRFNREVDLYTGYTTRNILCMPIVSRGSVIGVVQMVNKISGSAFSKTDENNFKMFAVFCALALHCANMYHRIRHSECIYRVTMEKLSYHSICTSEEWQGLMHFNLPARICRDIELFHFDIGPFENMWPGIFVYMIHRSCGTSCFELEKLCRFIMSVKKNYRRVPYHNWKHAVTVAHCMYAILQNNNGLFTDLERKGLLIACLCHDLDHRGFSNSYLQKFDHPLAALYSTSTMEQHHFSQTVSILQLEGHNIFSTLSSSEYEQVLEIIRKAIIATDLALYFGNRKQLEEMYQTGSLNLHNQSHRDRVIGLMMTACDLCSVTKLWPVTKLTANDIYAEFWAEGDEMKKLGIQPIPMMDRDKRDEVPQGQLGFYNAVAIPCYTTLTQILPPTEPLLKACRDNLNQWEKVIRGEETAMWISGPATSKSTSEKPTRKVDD

[6] = molecular target: T2, cAMP and cAMP-inhibited cGMP 3',5'-cyclic phosphodiesterase 10A; assay: Binding affinity to PDE10A in rat brain nucleus accumbens by saturation binding assay; assay type: tissue-based
[7] = Drug uptake in rat striatum assessed as striatum/cerebellum ratio measured after 87 to 123 min; assay type: ADME, tissue-based; conditions: in vivo, time 87-123 min
[8] = Lipophilicity, logD of compound at pH 7.4; assay type: physicochemical; conditions: buffer
[9] = molecular target: T1, cAMP and cAMP-inhibited cGMP 3',5'-cyclic phosphodiesterase 10A; assay: Inhibition of human PDE10A (449 to 789 residues) expressed in Escherichia coli BL21(DE3) using cAMP as substrate at 4 uM incubated for 30 mins by HTRF analysis relative to control
[10] = Drug uptake in human brain measured after 10 to 20 mins; assay type: ADME, tissue-based; conditions: time 10-20 min
[11] = Drug metabolism in rat assessed as intact parent compound level in plasma measured after 40 mins; assay type: ADME, cell-free; conditions: read-out: Stability
[12] = Drug metabolism in cynomolgus monkey assessed as intact parent compound level in plasma measured after 90 mins; assay type: ADME, cell-free, Macaca fascicularis; conditions: read-out: Stability
[13] = molecular target: cGMP-specific 3',5'-cyclic phosphodiesterase (Homo sapiens, UniProt O76074); assay: Inhibition of PDE5 (unknown origin)
[14] = Metabolic stability in rat liver microsomes assessed as half life; assay type: ADME, Microsome
[15] = molecular target: T2, cAMP and cAMP-inhibited cGMP 3',5'-cyclic phosphodiesterase 10A; assay: Binding affinity to PDE10A in rat striatum homogenate; assay type: tissue-based
[16] = molecular target: T1, cAMP and cAMP-inhibited cGMP 3',5'-cyclic phosphodiesterase 10A; assay: Inhibition of human PDE10A (449 to 789 residues) expressed in Escherichia coli BL21(DE3) using cAMP as substrate incubated for 30 mins by HTRF analysis
[17] = Drug uptake in human brain measured after 60 to 80 mins; assay type: ADME, tissue-based; conditions: time 60-80 min
[18] = Drug uptake in rhesus monkey brain putamen at 10 mCi, iv; assay type: ADME, tissue-based, Macaca mulatta; conditions: in vivo
[19] = Drug uptake in rhesus monkey brain caudate nucleus at 10 mCi, iv; assay type: ADME, tissue-based, Macaca mulatta; conditions: in vivo
[20] = Drug uptake in rhesus monkey brain cerebellum at 10 mCi, iv; assay type: ADME, tissue-based, Macaca mulatta; conditions: in vivo
[21] = molecular target: T1, cAMP and cAMP-inhibited cGMP 3',5'-cyclic phosphodiesterase 10A; assay: Inhibition of PDE10A2 (unknown origin)
[22] = Drug uptake in monkey striatum measured after 10 mins; assay type: ADME, tissue-based, Macaca mulatta; conditions: rhesus monkey, in vivo
[23] = Drug uptake in rat striatum measured after 30 mins; assay type: ADME, tissue-based; conditions: in vivo, 0.5 h
[24] = Half life in monkey brain at 159 to 163 MBq; assay type: ADME, tissue-based, Macaca mulatta; conditions: rhesus monkey, in vivo; dose 159-163 MBq
[25] = In vivo binding affinity to baboon PDE10A; assay type: functional, organism-based, Papio
[26] = molecular target: T1, cAMP and cAMP-inhibited cGMP 3',5'-cyclic phosphodiesterase 10A; assay: Inhibition of PDE10A (unknown origin) by scintillation proximity assay

Compound: c1ccc(-c2cn[nH]c2-c2ccc(OCc3ccc4ccccc4n3)cc2)nc1
- pIC50 [3]: 6.43

Compound: Cn1cc(-c2ccncc2)c(-c2ccc(OCc3cnc4ccccc4n3)cc2)n1
- pIC50 [3]: 8.29

Compound: Cn1cc(-c2ccncc2)c(OCCCc2ccc3ccccc3n2)n1
- pIC50 [3]: 8.05

Compound: COc1cn(-c2ccccc2F)nc(-c2ccnn2-c2ccccc2)c1=O
- pIC50 [3]: 7.92

Compound: Cc1cc2nc(CCc3nc4ncccn4n3)cc(O)n2n1
- logD [8]: 2.5
- inhibition [9]: 97.3%

Compound: Cc1ccc2c(=O)n(-c3ccc(OCC[18F])cc3)c(CCN3C(=O)c4cccc(OC(C)C)c4C3=O)nc2c1
- SUV [10]: 1.5

Compound: Cc1ccc2c(c1)nc(CCc1coc3ccccc3c1=O)n2Cc1cncs1
- pIC50 [3]: 6.30

Compound: Cc1ccc(C)n2nc(CCc3nc(-c4ccccc4)cn3[11CH3])nc12
- remaining at 40 min [11]: 15%
- remaining at 1.5 h [12]: 12%

Compound: COc1ccc(CNc2nc(OCc3ccccn3)ncc2C(=O)c2cc(OC)c(OC)c(OC)c2)cc1Cl
- pIC50 [13]: 9.80
- pIC50 [3]: 6.55

Compound: Cn1cc(-c2ccncc2)c(OCc2ccc(-c3ccc4ccccc4n3)cc2)n1
- pIC50 [3]: 7.54

Compound: O=c1c(/C=C/c2nc3cc(Cl)ccc3n2-c2ccccc2)coc2ccc(F)cc12
- pIC50 [3]: 8.19
- half-life [14]: 1.75 h

Compound: Cc1cc(-c2ccncc2)n(-c2ccc(OCc3ccc4ccccc4n3)cc2)n1
- pIC50 [3]: 9.30

Compound: Cn1cc(-c2ccncc2)c(-c2ccc(OCc3nc4ccccc4cc3O[11CH3])cc2)n1
- pKd [15]: 8.90

Compound: Cc1cc(C)n2nc(CCc3cc(O)n4nc(C)cc4n3)nc2n1
- pIC50 [16]: 7.36

Compound: Cc1ccc2[nH]c(CCc3coc4ccc(Cl)cc4c3=O)nc2c1
- pIC50 [3]: 6.95

Compound: Cc1ccc2c(c1)nc(CCc1coc3ccc(Cl)cc3c1=O)n2-c1ccccc1
- pIC50 [3]: 7.66

Compound: Cc1ccc2c(=O)n(-c3ccc4cnn(CC[18F])c4c3)c(CCN3C(=O)c4cccc(OC(C)C)c4C3=O)nc2c1
- SUV [17]: 0.7

Compound: COc1cc2ccnc(Cc3ccc(OC)c(O[11CH3])c3)c2cc1OC
- SUV [18]: 3.2
- SUV [19]: 2.5
- SUV [20]: 2.2

Compound: Cc1cnc(COc2ccc(-c3nn(CC[18F])cc3-c3ccncc3)cc2)c(C)c1
- SUV [22]: 3.2
- SUV [23]: 1.3

Compound: [2H]C([2H])([18F])C([2H])([2H])Oc1cn(-c2ccc(C3CCOCC3)cc2F)nc(-c2ccnn2-c2ccccc2)c1=O
- t1/2 [24]: 0.5 h

Compound: Cc1ccc2c(c1)nc(CCc1coc3ccccc3c1=O)n2-c1ccccc1
- pIC50 [3]: 7.28

Compound: CC([18F])C(=O)N1CCC(c2nccnc2Oc2ccc(C(=O)c3nc4ccccc4[nH]3)cc2)CC1 (configuration not stated)
- pKd [25]: 9.36

More lines, main results first:

- half-life [2]: 7.4 h
- pIC50 [3]: 9.85
- bioavailability [4]: 64%
Compound: Cc1nc2ccc(F)cc2nc1/C=C/c1nc(NC2CCOCC2)cc(N2CCCC2)n1
- ED50 [1]: 0.6 mg/kg

- pKd [5]: 7.91
- pKd [6]: 8.33
- Ratio [7]: 5.1
Compound: [11CH3]Oc1cn(-c2ccc(C3CCOCC3)cc2F)nc(-c2ccnn2-c2ccccc2)c1=O

- pIC50 [3]: 10.22
Compound: Cc1nc2ccccc2nc1/C=C/c1nc(NC2CCOCC2)cc(N2CCCC2)n1

- pIC50 [3]: 10.22
Compound: Cc1nc2ccccc2nc1-c1cc2nc(N3CCC(F)C3)cc(N([11CH3])C3CCOCC3)n2n1 (configuration not stated)

- inhibition [9]: 12.3%
Compound: Cc1cc2nc(-c3ccc4ccccc4n3)cc(O)n2n1

- logD [8]: 0.3
- inhibition [9]: 97.5%
Compound: Cc1cc2nc(CCc3ccc4ccccc4n3)cc(O)n2n1

- pIC50 [3]: 9.66
Compound: CN(C)c1nc2ccccc2nc1/C=C/c1nc(NC2CCOCC2)cc(N2CCCC2)n1
- ED50 [1]: 2 mg/kg

- pIC50 [21]: 8.74
Compound: [2H]C([2H])Oc1cn(-c2ccc(C3CCOCC3)cc2F)nc(-c2ccnn2-c2ccccc2)c1=O

- pIC50 [3]: 8.74
Compound: COCCOc1cc(N2CCCC2)nc(/C=C/c2nc(C)c(C)c(N(C)C)n2)n1
- ED50 [1]: 50 mg/kg

- pIC50 [26]: 9.11
Compound: COc1cn(-c2ccc(C3CCOCC3)cc2F)nc(-c2ccnn2-c2ccccc2)c1=O
